Activity calls are given as the source filed them. The rule behind the calls is not given here.
Tested on: CCRIS mutagenicity, Ames/micronucleus/aberration tests
Assay: CCRIS mutagenicity studies
[1] = Test System: AMES SALMONELLA TYPHIMURIUM, Strain/Indicator: TA98, Metabolic Activation: NONE, Method: STANDARD PLATE
[2] = Test System: AMES SALMONELLA TYPHIMURIUM, Strain/Indicator: TA98, Metabolic Activation: RAT, LIVER, S-9, AROCLOR 1254, Method: STANDARD PLATE
[3] = Test System: AMES SALMONELLA TYPHIMURIUM, Strain/Indicator: TA100, Metabolic Activation: NONE, Method: STANDARD PLATE
[4] = Test System: AMES SALMONELLA TYPHIMURIUM, Strain/Indicator: TA100, Metabolic Activation: RAT, LIVER, S-9, AROCLOR 1254, Method: STANDARD PLATE
[5] = Test System: AMES SALMONELLA TYPHIMURIUM, Strain/Indicator: TA1535, Metabolic Activation: NONE, Method: STANDARD PLATE
[6] = Test System: AMES SALMONELLA TYPHIMURIUM, Strain/Indicator: TA1535, Metabolic Activation: RAT, LIVER, S-9, AROCLOR 1254, Method: STANDARD PLATE
[7] = Test System: AMES SALMONELLA TYPHIMURIUM, Strain/Indicator: TA1537, Metabolic Activation: NONE, Method: STANDARD PLATE
[8] = Test System: AMES SALMONELLA TYPHIMURIUM, Strain/Indicator: TA1537, Metabolic Activation: RAT, LIVER, S-9, AROCLOR 1254, Method: STANDARD PLATE
[9] = Test System: AMES SALMONELLA TYPHIMURIUM, Strain/Indicator: TA98, Metabolic Activation: NONE, Method: PREINCUBATION

Compound: COP(=S)(OC)Oc1nc(Cl)c(Cl)cc1Cl
- mutagenic call (Test System: AMES SALMONELLA TYPHIMURIUM, Strain/Indicator: TA98, Metabolic Activation: NONE): inactive; negative
- mutagenic call (Test System: AMES SALMONELLA TYPHIMURIUM, Strain/Indicator: TA98, Metabolic Activation: RAT, LIVER, S-9, AROCLOR 1254): inactive; negative
- mutagenic call (Test System: AMES SALMONELLA TYPHIMURIUM, Strain/Indicator: TA100, Metabolic Activation: NONE): inactive; negative
- mutagenic call (Test System: AMES SALMONELLA TYPHIMURIUM, Strain/Indicator: TA100, Metabolic Activation: RAT, LIVER, S-9, AROCLOR 1254): inactive; negative
- mutagenic call (Test System: AMES SALMONELLA TYPHIMURIUM, Strain/Indicator: TA102, Metabolic Activation: NONE): inactive; negative
- mutagenic call (Test System: AMES SALMONELLA TYPHIMURIUM, Strain/Indicator: TA102, Metabolic Activation: RAT, LIVER, S-9, AROCLOR 1254): inactive; negative
- mutagenic call (Test System: AMES SALMONELLA TYPHIMURIUM, Strain/Indicator: TA1535, Metabolic Activation: NONE): inactive; negative
- mutagenic call (Test System: AMES SALMONELLA TYPHIMURIUM, Strain/Indicator: TA1535, Metabolic Activation: RAT, LIVER, S-9, AROCLOR 1254): inactive; negative
- mutagenic call (Test System: AMES SALMONELLA TYPHIMURIUM, Strain/Indicator: TA1537, Metabolic Activation: NONE): inactive; negative
- mutagenic call (Test System: AMES SALMONELLA TYPHIMURIUM, Strain/Indicator: TA1537, Metabolic Activation: RAT, LIVER, S-9, AROCLOR 1254): inactive; negative

Compound: CCN(CCCCO)N=O
- mutagenic call (Test System: AMES SALMONELLA TYPHIMURIUM, Strain/Indicator: TA1535, Metabolic Activation: RAT, LIVER, S-9, KC500 OR PHENOBARBITAL, Method: LIQUID SUSPENSION): active; positive

Compound: CCN(CC)c1ccc(N=Nc2ccc([N+](=O)[O-])cc2C#N)cc1
- mutagenic call [1]: active; positive
- mutagenic call [2]: active; positive
- mutagenic call [3]: active; positive
- mutagenic call [4]: active; positive
- mutagenic call [5]: inactive; negative
- mutagenic call [6]: inactive; negative
- mutagenic call [7]: active; positive
- mutagenic call [8]: active; positive
- mutagenic call (Test System: CHINESE HAMSTER OVARY, Strain/Indicator: CHO (HGPRT)/6-THIOGUANINE, Metabolic Activation: NONE): inactive; negative
- mutagenic call (Test System: CHINESE HAMSTER OVARY, Strain/Indicator: CHO (HGPRT)/6-THIOGUANINE, Metabolic Activation: RAT, LIVER, S-9, AROCLOR 1254): inactive; negative
- mutagenic call (Test System: UDS RAT HEPATOCYTES, Strain/Indicator: THY INCORP, Metabolic Activation: NONE, Method: AUTORADIOGRAPHY): inactive; negative

Compound: NOS(=O)(=O)O
- mutagenic call (Test System: AMES SALMONELLA TYPHIMURIUM, Strain/Indicator: G46, Metabolic Activation: RAT, LIVER, S-9, AROCLOR 1254, Method: STANDARD PLATE): active; positive
- mutagenic call [4]: inactive; negative

Compound: CC(=O)N1CCC[C@H]1C(=O)N(CC(=O)O)N=O
- mutagenic call [1]: inactive; negative
- mutagenic call [2]: inactive; negative
- mutagenic call (Test System: AMES SALMONELLA TYPHIMURIUM, Strain/Indicator: TA100, Metabolic Activation: HOST MEDIATED, Method: STANDARD PLATE): active; positive
- mutagenic call [3]: active; positive
- mutagenic call [4]: active; positive
- mutagenic call (Test System: AMES SALMONELLA TYPHIMURIUM, Strain/Indicator: TA102, Metabolic Activation: NONE, Method: STANDARD PLATE): active; positive
- mutagenic call (Test System: AMES SALMONELLA TYPHIMURIUM, Strain/Indicator: TA102, Metabolic Activation: RAT, LIVER, S-9, AROCLOR 1254, Method: STANDARD PLATE): active; positive
- mutagenic call [5]: active; positive
- mutagenic call [6]: active; positive
- mutagenic call [7]: inactive; negative
- mutagenic call [8]: inactive; negative
- mutagenic call (Test System: AMES SALMONELLA TYPHIMURIUM, Strain/Indicator: TA1538, Metabolic Activation: NONE, Method: STANDARD PLATE): inactive; negative
- mutagenic call (Test System: AMES SALMONELLA TYPHIMURIUM, Strain/Indicator: TA1538, Metabolic Activation: RAT, LIVER, S-9, AROCLOR 1254, Method: STANDARD PLATE): inactive; negative
- mutagenic call (Test System: CHO/HGPRT, Strain/Indicator: CHO-K1-BH4, Metabolic Activation: NONE): active; positive

Compound: OCCOCCOCCO
- mutagenic call [9]: inactive; negative
- mutagenic call (Test System: AMES SALMONELLA TYPHIMURIUM, Strain/Indicator: TA98, Metabolic Activation: RAT LIVER S-9, PHENOBARBITAL AND BETA-NAPHTHOFLAVONE, Method: PREINCUBATION): inactive; negative
- mutagenic call (Test System: AMES SALMONELLA TYPHIMURIUM, Strain/Indicator: TA100, Metabolic Activation: NONE, Method: PREINCUBATION): inactive; negative
- mutagenic call (Test System: AMES SALMONELLA TYPHIMURIUM, Strain/Indicator: TA100, Metabolic Activation: RAT LIVER S-9, PHENOBARBITAL AND BETA-NAPHTHOFLAVONE, Method: PREINCUBATION): inactive; negative
- mutagenic call (Test System: AMES SALMONELLA TYPHIMURIUM, Strain/Indicator: TA1535, Metabolic Activation: NONE, Method: PREINCUBATION): inactive; negative
- mutagenic call (Test System: AMES SALMONELLA TYPHIMURIUM, Strain/Indicator: TA1535, Metabolic Activation: RAT LIVER S-9, PHENOBARBITAL AND BETA-NAPHTHOFLAVONE, Method: PREINCUBATION): inactive; negative
- mutagenic call (Test System: AMES SALMONELLA TYPHIMURIUM, Strain/Indicator: TA1537, Metabolic Activation: NONE, Method: PREINCUBATION): inactive; negative
- mutagenic call (Test System: AMES SALMONELLA TYPHIMURIUM, Strain/Indicator: TA1537, Metabolic Activation: RAT LIVER S-9, PHENOBARBITAL AND BETA-NAPHTHOFLAVONE, Method: PREINCUBATION): inactive; negative
- mutagenic call (Test System: AMES SALMONELLA TYPHIMURIUM, Strain/Indicator: TA1538, Metabolic Activation: NONE, Method: PREINCUBATION): inactive; negative
- mutagenic call (Test System: AMES SALMONELLA TYPHIMURIUM, Strain/Indicator: TA1538, Metabolic Activation: RAT LIVER S-9, PHENOBARBITAL AND BETA-NAPHTHOFLAVONE, Method: PREINCUBATION): inactive; negative
- mutagenic call (Test System: E.COLI, Strain/Indicator: WP2UVRA, Metabolic Activation: NONE, Method: PREINCUBATION): inactive; negative
- mutagenic call (Test System: E.COLI, Strain/Indicator: WP2UVRA, Metabolic Activation: RAT LIVER S-9, PHENOBARBITAL AND BETA-NAPHTHOFLAVONE, Method: PREINCUBATION): inactive; negative

Compound: Cc1ncc([N+](=O)[O-])n1CC(=O)O
- mutagenic call [3]: active; positive
- mutagenic call [4]: inactive; negative

Compound: CC(=O)OCN(N=O)c1ccccc1
- mutagenic call (Test System: AMES SALMONELLA TYPHIMURIUM, Strain/Indicator: TA1537, Metabolic Activation: NONE, Method: LIQUID INCUBATION): active; positive

Compound: O=[N+]([O-])c1ccc2c(c1)-c1ccccc1C2
- mutagenic call (End Point: IN VITRO CHROMOSOMAL ABERRATIONS, Test System: CHINESE HAMSTER LUNG (CHL) CELLS, Metabolic Activation: NONE): inactive; negative
- mutagenic call (End Point: IN VITRO CHROMOSOMAL ABERRATIONS, Test System: CHINESE HAMSTER LUNG (CHL) CELLS, Metabolic Activation: RAT, LIVER, S-9, KC-400): active; positive
- mutagenic call (Test System: AMES SALMONELLA TYPHIMURIUM, Strain/Indicator: TA98 (1,8-DNP6), Metabolic Activation: NONE, Method: PREINCUBATION): active; positive
- mutagenic call (Test System: AMES SALMONELLA TYPHIMURIUM, Strain/Indicator: TA98(NR), Metabolic Activation: NONE, Method: PREINCUBATION): active; positive
- mutagenic call (Test System: AMES SALMONELLA TYPHIMURIUM, Strain/Indicator: TA98(NR), Metabolic Activation: RAT LIVER S-9 (10%), Method: PREINCUBATION): active; positive
- mutagenic call (Test System: AMES SALMONELLA TYPHIMURIUM, Strain/Indicator: TA98 (NR), Metabolic Activation: RAT LIVER S-9, 3-METHYLCHOLANTHRENE (10%), Method: PREINCUBATION): active; positive
- mutagenic call (Test System: AMES SALMONELLA TYPHIMURIUM, Strain/Indicator: TA98(NR), Metabolic Activation: RAT LIVER S-9, BETA-NAPHTHAFLAVONE (10%), Method: PREINCUBATION): active; positive
- mutagenic call (Test System: AMES SALMONELLA TYPHIMURIUM, Strain/Indicator: TA98(NR), Metabolic Activation: RAT LIVER S-9, PCB (10%), Method: PREINCUBATION): active; positive
- mutagenic call (Test System: AMES SALMONELLA TYPHIMURIUM, Strain/Indicator: TA98(NR), Metabolic Activation: RAT LIVER S-9, PHENOBARBITAL (10%), Method: PREINCUBATION): active; positive
- mutagenic call [9]: active; positive
